How the values were obtained:
Assay type in all cases: biochemical
[1] = target: T1, MtMetAP1c (Mycobacterium tuberculosis, UniProt P9WK19); experiment: fluorescence, hydrolysis of methionyl aminomethylcoumarin
T1 construct: gene map

[2] = target: T2, HsMetAP1b (Homo sapiens, UniProt P53582); experiment: as above
T2 construct: gene METAP1; expressed in E. coli and purified

[3] = target: T3, EfMetAP1b (Enterococcus faecalis, UniProt Q832M5); experiment: as above
T3 construct: gene map; expressed in E. coli and purified
T3 sequence (Q832M5 1-254): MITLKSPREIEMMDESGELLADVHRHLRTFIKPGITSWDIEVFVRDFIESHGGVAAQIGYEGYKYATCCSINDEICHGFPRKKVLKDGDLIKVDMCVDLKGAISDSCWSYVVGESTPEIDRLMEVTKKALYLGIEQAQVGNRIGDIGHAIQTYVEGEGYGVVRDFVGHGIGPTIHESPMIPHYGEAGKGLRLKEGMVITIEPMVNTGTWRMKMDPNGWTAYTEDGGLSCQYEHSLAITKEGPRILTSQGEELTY

[4] = target: T3, EfMetAP1b; experiment: fluorescence, substrate hydrolysis; details: room temperature; metal not given
[5] = target: T2, HsMetAP1b; experiment: fluorescence, substrate hydrolysis; details: room temperature; metal not given
[6] = target: T1, MtMetAP1c; details: room temperature; metal not given

T1 sequence (P9WK19 whole entry, looked up): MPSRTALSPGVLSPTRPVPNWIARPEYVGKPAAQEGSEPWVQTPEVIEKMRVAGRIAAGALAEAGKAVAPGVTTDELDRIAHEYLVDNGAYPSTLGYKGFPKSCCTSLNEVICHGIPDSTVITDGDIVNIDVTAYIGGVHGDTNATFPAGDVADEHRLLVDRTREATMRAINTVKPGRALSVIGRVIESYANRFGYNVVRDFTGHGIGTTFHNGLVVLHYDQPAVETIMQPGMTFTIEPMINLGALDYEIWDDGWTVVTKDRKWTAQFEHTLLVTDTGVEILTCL

Compound	inhibition at 50 µM [1] [%]	inhibition at 50 µM [2] [%]	inhibition at 50 µM [3] [%]	fluorescence, substrate hydrolysis [4]	fluorescence, substrate hydrolysis [5]	fluorescence, substrate hydrolysis [6]
CCCCCCCCCCCCCC(=O)O[C@H]1CC[C@H](NC(=O)[C@H](OC)[C@H](O)[C@@H](O)[C@H](O)/C=C/C(C)C)C(=O)N(C)C1 [F12, bengamide B]	72.8	84.7	83.3			
CSCC[C@H](N)C(=O)Nc1ccc2c(C)cc(=O)oc2c1 [methionyl aminomethylcoumarin]				enzymatic activity was monitored by fluorescence readings following hydrolysis of the fluorogenic substrate, methionyl aminomethylcoumarin	enzymatic activity was monitored by fluorescence readings following hydrolysis of the fluorogenic substrate, methionyl aminomethylcoumarin	enzymatic activity was monitored by fluorescence readings following hydrolysis of the fluorogenic substrate, methionyl aminomethylcoumarin

Reference: paper PMC6779907, “Bengamides display potent activity against drug-resistant Mycobacterium tuberculosis” (Scientific Reports, 2019)
